Among the test systems are HCT-15; OVCAR-3; HCC 2998; NCI/ADR-RES; UACC-62; Malme-3M; RXF 393; M14; EKVX; HCT-116; A498; SNB-19; HOP-62; NCI-H23; SR; SNB-75; SF-295; HOP-92; COLO 205; OVCAR-8.
Holding throughout (test): DTP human tumour cell line panel, 48 h

Molecules are shown by their SMILES.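 All cell lines were grown in 96-well plates and treated with compound for 48 hours. Here, GI50 denotes the concentration required for 50% inhibition of growth.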 Active and inactive are the calls of the source. Rule as the data show it: active = GI50 up to about 1.1 µM and inactive = higher. Bounds are passed on as bounds.

On to `OCc1ccc2c(c1)CC1(C2)Cc2cc3c(cc2C1)CCC3`, for which the GI50 with HCT-15 was 2.92 µM; with OVCAR-3, 3.02 µM (inactive); with HCC 2998, 6.12 µM (inactive); with NCI/ADR-RES, 2.9 µM (inactive); in the assay on UACC-62 it was 6.53 µM (inactive); in the assay with Malme-3M it was 4.71 µM (inactive). The GI50 is 2.58 µM (inactive) in the assay with RXF 393; 3.27 µM (inactive) in the assay with M14; 8.04 µM (inactive) in the assay with EKVX; 3.72 µM (inactive) in the assay with HCT-116; 5.86 µM (inactive) in the assay with A498; 4.89 µM (inactive) in the assay with SNB-19. The GI50 in the assay on HOP-62 was 4.7 µM (inactive); in the assay on NCI-H23, 4.3 µM (inactive); with SR it was 1.14 µM (inactive); with SNB-75, 2.26 µM (inactive); in the assay with SF-295, 3.39 µM (inactive); with HOP-92, 8.99 µM (inactive). In addition, the GI50 in the assay on COLO 205 is 2.51 µM (inactive); with OVCAR-8, 10.8 µM (inactive).

On to `COc1cc(C2c3cc4c(cc3[C@H](OCCN(C)C)[C@@H]3COC(=O)C23)OCO4)cc(OC)c1O` (stereo not given in full), for which the concentration for 50% growth inhibition (GI50) with HCT-15 is 0.605 µM; in the assay on OVCAR-3, 1.46 µM (inactive); with HCC 2998, 0.774 µM (active); in the assay with NCI/ADR-RES, 2.67 µM (inactive); in the assay with UACC-62 it was 0.0762 µM (active); with Malme-3M, 0.275 µM (active). Further, the GI50 in the assay on RXF 393 was 0.299 µM (active); with M14 it was 0.244 µM (active); in the assay with EKVX it was 0.485 µM (active); with HCT-116, 0.753 µM (active); with A498, 0.105 µM (active); in the assay on SNB-19, 0.31 µM (active). In addition, the GI50 in the assay on HOP-62 was 0.053 µM (active); in the assay on NCI-H23 it was 0.155 µM (active); in the assay on SR, 0.218 µM (active); with SNB-75, 0.307 µM (active); with SF-295 it was 0.0681 µM (active); in the assay with HOP-92 it was 0.0989 µM (active). Further, the values for the GI50 in the assay on COLO 205 and in the assay with OVCAR-8 were 1.73 µM (inactive) and 0.624 µM (active), respectively.

With `Cc1cc(O)c(C=O)c2c1C(=O)Oc1c(CO)c(O)c3c(c1O2)C(O)OC3=O` (stereo not given) [SLAZINIC ACID], the 50% growth inhibitory concentration (GI50) is 55.2 µM in the assay on HCT-15; 77.1 µM (inactive) in the assay with OVCAR-3; > 100 µM (inactive) in the assay on HCC 2998; 44.7 µM (inactive) in the assay on NCI/ADR-RES; 59 µM (inactive) with UACC-62; 41 µM (inactive) in the assay with Malme-3M. Further, the GI50 in the assay with RXF 393 is 87.5 µM (inactive); in the assay on M14, 61.4 µM (inactive); in the assay on EKVX it was > 100 µM (inactive); in the assay with HCT-116, 69.8 µM (inactive); with A498 it was 58.3 µM (inactive); in the assay on SNB-19, 21.4 µM (inactive). Besides, the GI50 in the assay with HOP-62 is > 100 µM (inactive); in the assay with NCI-H23, > 100 µM (inactive); in the assay with SR, 22.6 µM (inactive); in the assay on SNB-75, 24.1 µM (inactive); with SF-295, > 100 µM (inactive); with HOP-92, 50.6 µM (inactive). The GI50 was > 100 µM (inactive) with COLO 205 and 52.7 µM (inactive) in the assay with OVCAR-8.

The values above are taken from ChEMBL document CHEMBL1201862, “PubChem BioAssay data set” (2004).
